US9322049B2, “Activation and activators of SirT6” (CORNELL UNIVERSITY, priority 2009, dated 2016)
Where two headings read alike, the source gives them in different places. Blank lines part the entries; values can stand above or below the molecule they belong to.

Tests used:
SirT6 [1] = biological target: T1, SirT6 (Homo sapiens, UniProt Q8N6T7); test: Activation of SIRT6 by nucleosides or nucleotides, HPLC of AADPR (Example 8); assay type: biochemical; details: 800 μM NAD+, 500 μM H3 peptide, 11.3 μM SIRT6
T1 construct: The protein expression and purification were the same as the full length SIRT6 as described above; made in house; host or cells: E. coli BL21 Codon-plus RIPL
T1 sequence (Q8N6T7 whole entry): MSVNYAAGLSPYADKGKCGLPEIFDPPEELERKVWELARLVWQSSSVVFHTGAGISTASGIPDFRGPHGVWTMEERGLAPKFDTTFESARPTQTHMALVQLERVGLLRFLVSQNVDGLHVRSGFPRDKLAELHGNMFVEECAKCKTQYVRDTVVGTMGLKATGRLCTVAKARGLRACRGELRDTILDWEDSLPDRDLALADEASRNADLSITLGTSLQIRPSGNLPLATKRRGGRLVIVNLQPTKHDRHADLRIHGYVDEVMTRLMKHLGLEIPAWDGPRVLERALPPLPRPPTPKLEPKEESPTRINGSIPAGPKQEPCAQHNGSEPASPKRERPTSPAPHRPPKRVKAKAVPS
Experimental: Reactions containing 800 μM NAD^+, 500 μM H3 peptide, and 100 mM phosphate buffer at pH 7.5, with varying concentrations of nucleosides or nucleotides were initiated by addition of SIRT6 enzyme to a concentration of 11.3 μM. Reactions were incubated for 2 hours at 37° C. and quenched by addition of trifluoroacetic acid to pH 2. After centrifugation to remove precipitates, reactions were injected on HPLC for activity analysis. Production of 2′- and 3′-AADPR were analyzed at 260 nm.

SirT6 [2] = biological target: T1, SirT6; test: Gel shift assay of DNA association to SirT6 (Example 5); assay type: binding; details: 1 mM suramin; 50 ng/μl linearized pSTBlue, 10 μM SirT6
Experimental: Lane 1, DNA+NAD; Lane 2, DnA+H3; Lane 3, DNA+NAD+H3; Lane 4, DNA+SirT6; Lane 5, DNA+NAD+SirT6; Lane 6, DNA+H3+SirT6; Lane 7, DNA+NAD+H3+SirT6; Lane 8, DNA+SirT6+1 mM suramin; Lane 9, DNA+NAD+SirT6+1 mM suramin; Lane 10, DNA+H3+SirT6+1 mM suramin; Lane 11, DNA+NAD+H3+SirT6+1 mM suramin; Lane 12, DNA only. […] Lane 1, DNA+H3; Lane 2, DNA+H4; Lane 3, DNA+SirT6; Lane 4, DNA+H3+SirT6; Lane 5, DNA+H4+SirT6; Lane 6, DNA+NAD+H3+SirT6; Lane 7, DNA+NAD+H4+SirT6; Lane 8, DNA+SirT6+1 mM suramin; Lane 9, DNA+H3+SirT6+1 mM suramin; Lane 10, DNA+H4+SirT6+1 mM suramin; Lane 11, DNA+NAD+H3+SirT6+1 mM suramin; Lane 12, DNA+NAD+H4+SirT6+1 mM suramin; Lane 13, DNA only. 6 μl of each sample involving 50 ng/μl linearized pSTBlue plasmid, 800 μM NAD, 10 μM SirT6, 480 μM H3/H4, and/or 1 mM suramin were loaded to 0.6% native agarose gel containing ethidium bromide and ran at 100 V for one and half hours. DNA bound to SirT6 stayed in the wells and free DNA ran to the bottom of the gel. The top arrow indicated the large complex formed by DNA and SirT6.
The plasmid pSTBlue was linearized by EcoRI, BamHI, or EcoRV, and then purified by DNA gel extraction kit (Novagen) or […]™ III kit (MP Biomedicals, LLC). 6 μl of each sample contained 50 ng/μl of linearized pSTBlue, 800 μM NAD, 10 μM SirT6/truncated form, 480 μM H3, and/or 1 mM suramin as indicated. […]

SirT6-DNA complex = biological target: T2, SirT6-DNA complex (Homo sapiens, UniProt Q8N6T7); test: Suramin competition with binding of linearized DNA to SIRT6 (Example 6); details: for Kd: read-out: Kd of suramin for dissociation of linearized DNA from SirT6
T2 construct: The protein expression and purification were the same as the full length SIRT6 as described above; made in house; host or cells: E. coli BL21 Codon-plus RIPL
T2 sequence (Q8N6T7 whole entry, one chain of several): as the sequence (Q8N6T7 whole entry) above
Experimental: The linearized DNA was incubated with SirT6 and Ni-NTA resin. The resin was washed as described in Materials and Methods, and the complex of SirT6-DNA was dissociated by 1 mM suramin. The parallel experiments were done in the presence of 500 uM H3 peptide. DNA bound to SirT6 was quantified and fit to Michaelis-Menten equation to get Kd of DNA binding to the enzyme. […] The single stranded DNA was incubated with SirT6 and Ni-NTA resin. The resin was washed and the complex of SirT6-ssDNA was dissociated by 1 mM suramin. The parallel experiments were done in the presence of 500 uM H3 peptide. […] The linearized DNA was incubated with SirT6 and Ni-NTA resin with or without H3 peptide. After washing, the resin was incubated with different concentration of surmain. The dissociated DNA was quantified by gel electrophoresis. […] After the resin was washed, DNA was dissociated with 1 mM suramin and quantified by gel electrophoresis. Lane 1, 150 ng circular pSTBlue (C-pSTBlue); Lane 2, 150 ng pSTBlue cut with BamHI (B-pSTBlue); Lane 3, 150 ng pSTBlue cut with EcoRV (E-pSTBlue); Lane 4, circular pSTBlue bound to SirT6; Lane 5, pSTBlue cut with BamHI bound to SirT6; Lane 6, pSTBlue cut with EcoRV bound to SirT6; Lane 7, circular pSTBlue bound to SirT6 in the presence of H3; Lane 8, pSTBlue cut with BamHI bound to SirT6 in the presence of H3; Lane 9, pSTBlue cut with EcoRV bound to SirT6 in the presence of H3; Lane 10, DNA ladder.
In order to test if suramin competed with the binding of DNA to SIRT6, 20 ng/μl pSTBlue was incubated with 5 μM SIRT6, 25% slurry Ni-NTA resin, and/or 1 mM H3 peptide. After incubation for 1 hour at room temperature, the SIRT6-DNA-resin complex was washed with 10 and 20 mM imidazole, 100 mM phosphate buffer, pH 7.5 as described above. The SIRT6-DNA-resin complex was incubated with different concentrations of suramin. The dissociated DNA was then quantified by 0.8% agarose gel electrophoresis and the DNA level was fitted to Michaelis-Menten equation using the software Kaleidagraph.

[3] = biological target: T3, truncated SirT6 (deletion of N terminal 17 amino acids) (Homo sapiens, UniProt Q8N6T7); test: Deacetylation rate of truncated SirT6 with suramin or single stranded DNA; assay type: biochemical; details: 50 μM suramin or 100 ng/μl single stranded DNA; 800 μM NAD, 480 μM H3, 10 μM enzyme
T3 construct: The truncated SIRT6 was cloned similarly with the full length SIRT6; poly-histidine (pET28a) (N); made in house; host or cells: E. coli BL21 Codon-plus RIPL
T3 sequence (Q8N6T7 with tags, fused parts or gaps): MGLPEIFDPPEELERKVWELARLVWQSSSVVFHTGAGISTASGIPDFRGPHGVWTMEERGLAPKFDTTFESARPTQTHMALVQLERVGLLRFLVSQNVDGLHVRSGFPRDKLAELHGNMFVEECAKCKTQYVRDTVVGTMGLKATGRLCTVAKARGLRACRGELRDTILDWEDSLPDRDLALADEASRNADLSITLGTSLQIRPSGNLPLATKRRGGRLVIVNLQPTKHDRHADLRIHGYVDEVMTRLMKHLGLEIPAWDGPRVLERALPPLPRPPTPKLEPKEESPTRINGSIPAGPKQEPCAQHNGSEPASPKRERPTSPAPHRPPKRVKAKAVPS
Description: The deacetylation rate of different truncated SirT6 was normalized to the rate of full length SirT6 for the comparison.
The truncated SIRT6 was cloned similarly with the full length SIRT6. The primers used in the cloning of different truncated SIRT6 are the following: SIRT6Δ2-7 Forward 5′ GCTAGC ATGGGGCTGTCGCCGTACGCG 3′ (SEQ ID NO: 4); SIRT6Δ2-12 Forward 5′ GCTAGC ATG […] 3′ (SEQ ID NO: 5); SIRT6Δ2-18 Forward 5′ GCTAGC ATGGGCCTCCCGGAGATCTTCGAC 3′ (SEQ ID NO: 6); SIRT6Δ2-51 Forward 5′ 5′ GCTAGC ATGACGGGTGCCGGCATCAGCACT 3′ (SEQ ID NO: 7). The common reverse primer is 5′[…] 3′ (SEQ ID NO: 8). The truncated SIRT6 was amplified by PCR reaction. The PCR product was then ligated into pSTblue-1 (Novagen). After digestion with NheI and BamHI, the fragment containing SIRT6 gene was ligated into pET28a vector (Novagen). The SIRT6 truncated sequence in pET28a plasmid was confirmed by DNA sequencing, and the plasmid was then transformed into BL21Codon-plus RIPL cells (Stratagene). The protein expression and purification were the same as the full length SIRT6 as described above.

SirT6 [4] = biological target: T1, SirT6; test: Determination of Kd of suramin for SirT6 activation by HPLC (Example 1); assay type: biochemical
Experimental: FIG. 2C depicts the determination of Kd of suramin for activation of SirT6. […] After 2 hours incubation at 37° C., the deacetylated H3 was separated from H3 by gradient (0˜30%) acetonitrile in 0.1% TFA using a C18 column, and analyzed by integrating its area at 215 nm wavelength.
The precipitated proteins and other insolubles were removed by centrifugation at 15,000 rpm for 5 minutes. The peptides were separated by a Waters Xterra RP-18 column using a gradient of 0-30% acetonitrile in 0.1% trifluoroacetic acid. […] The turnover rates versus […] were plotted and fitted to the equation: Activation (Fold)=1+m*x/(Kd+x) using the software Kaleidagraph.

SirT6 [5] = biological target: T1, SirT6; test: Determination of Kd of DNA for SirT6 activation by HPLC (Example 2); assay type: biochemical; details: 800 μM NAD, 480 μM H3, 10 μM SirT6, 2 hours 37° C.; unit given as mM
Experimental: FIG. 5A depicts a schematic of DNA structure. […] After 2 hours incubation at 37° C., either the deacetylated H3 was separated from H3 in the reaction containing the digested calf thymus DNA or AADPR was separated from other components in the reaction containing ssDNA, the plasmid, or dsDNA.
The plasmid pSTBlue was digested with BamHI and EcoRV and purified by […]™ III kit. […] The AADPR was separated by HPLC and the quantified data were fit into Michaelis-Menten equation to get Km of H3.
In the enzymatic reaction, the following DNA was used.
Calf thymus DNA (USB Corporation), which was digested with EcoRI and then purified using Spinprep Gel DNA Kit (Novagen);
ssDNA (5′ […] 3′ (SEQ ID NO: 9), Integrated DNA Technologies);
dsDNA (forward 5′ […] 3′ (SEQ ID NO: 10), reverse 5′ […] 3′ (SEQ ID NO: 11), Integrated DNA Technologies); and
pSTBlue plasmid, which was amplified using DH5α cells and purified by WIZARD™ PLUS (Midiprep) DNA purification system (Promega).
The precipitated proteins and other insolubles were removed by centrifugation at 15,000 rpm for 5 minutes. DNA in the supernatant was further removed by centrifugation at 15,000 rpm for 10 minutes using Microcon with 10 kDa cutoff (Millipore). In the experiment with the digested calf thymus DNA, the peptides were separated by a Waters Xterra RP-18 column using a gradient of 0-30% acetonitrile in 0.1% trifluoroacetic acid. […]

SIRT6 activated (SirT6 [1]; at 500 μM): 90% activated at 500 μM
Molecule: NC(=O)c1ccc[n+]([C@@H]2O[C@H](COP(=O)([O-])O)C(O)C2(Cl)Cl)c1 (stereo partly drawn) [gem-diCl-NMN]

SIRT6 activated (SirT6 [1]; at 1 mM): 30% activated at 1 mM
Molecule: NC(=O)c1ccc[n+]([C@@H]2O[C@H](CO)C(O)C2(Cl)Cl)c1 (stereo partly drawn) [gem-diCl-NR]

SIRT6 activated (SirT6 [1]; at 500 μM): 30% activated at 500 μM
Molecule: NC(=O)c1ccc[n+]([C@@H]2O[C@H](CO)[C@@H](O)C2(F)F)c1 [gem-diF-NR, 1-(2′-deoxy-2′,2′-difluoro-ribofuranosyl)-nicotinamide]

SIRT6 activated (SirT6 [1]; at 550 μM): 17% activated at 550 μM
Molecule: NC(=O)c1ccc[n+]([C@@H]2O[C@H](CO)[C@H](O)C2F)c1 (stereo partly drawn) [ribo-F-NR, 1-(2-deoxy-2-fluoro-D-ribofuranosyl)-nicotinamide]

Association of DNA to SirT6 (SirT6 [2]): weakened | Vmax of dissociated DNA (SirT6-DNA complex; in the absence of H3): 6.37 ng/µL | Kd (SirT6-DNA complex; in the absence of H3): 72.4 µM | Vmax of dissociated DNA (SirT6-DNA complex; in the presence of H3): 17.8 ng/µL | Kd (SirT6-DNA complex; in the presence of H3): 129 µM | Activation of truncated SirT6 deacetylation [3]: lost of activation | Kd (SirT6 [4]): 54.7 µM
Molecule: Cc1ccc(C(=O)Nc2ccc(S(=O)(=O)O)c3cc(S(=O)(=O)O)cc(S(=O)(=O)O)c23)cc1NC(=O)c1cccc(NC(=O)Nc2cccc(C(=O)Nc3cc(C(=O)Nc4ccc(S(=O)(=O)O)c5cc(S(=O)(=O)O)cc(S(=O)(=O)O)c45)ccc3C)c2)c1 [suramin]

B1: dsDNA: dsDNA, forward SEQ ID NO: 10, reverse SEQ ID NO: 11, Integrated DNA Technologies (nucleic acid)
sense: AAGCATTTATCAGGGTTATTGTCTCATGAGCGGAT
antisense: ATCCGCTCATGAGACAATAACCCTGATAAATGCTT
modifications: DNA, backbone and methylation of C not given here
Kd (SirT6 [5]): > 10 mM
